Numbers after ± are expanded uncertainties.
Test: xn = mol fraction of the nth substance listed
Settings: 101 kPa, Liquid; for electrical conductivity: Alternating current cell with electrodes; for speed of sound: Frequency=3 MHz, Sing-around technique in a fixed-path interferometer; for mass density: Vibrating tube method

C[C@H](O)C(=O)[O-].C[N+](C)(C)CCO + O
Settings	electrical conductivity, 293.15 K [S/m]	electrical conductivity, 298.15 K [S/m]	mass density, 293.15 K [kg/m3]	mass density, 298.15 K [kg/m3]	speed of sound, 293.15 K [m/s]	speed of sound, 298.15 K [m/s]
x1 = 0.0258	3 ± 0.18	3.35 ± 0.2	1036.96 ± 0.43	1035.09 ± 0.42	1660.5 ± 2.3	1665.3 ± 2.2
x1 = 0.0511	2.99 ± 0.18	3.42 ± 0.2	1063.09 ± 0.41	1060.72 ± 0.4	1783.4 ± 2.2	1781.5 ± 2.1
x1 = 0.074	2.55 ± 0.15	2.85 ± 0.17	1083.32 ± 0.32	1080.6 ± 0.31	1872.8 ± 1.8	1866 ± 1.8
x1 = 0.1027	1.91 ± 0.12	2.29 ± 0.14	1098.55 ± 0.25	1095.58 ± 0.25	1930.6 ± 1.6	1920.6 ± 1.6
x1 = 0.1443	–	–	1111.86 ± 0.29	1108.71 ± 0.28	1988.4 ± 1.6	1968.2 ± 1.6
x1 = 0.1965	0.806 ± 0.048	1.01 ± 0.061	1122.77 ± 0.41	–	1987.8 ± 1.7	1974.6 ± 1.7
x1 = 0.2705	–	–	1132.07 ± 0.66	–	1989.4 ± 2	1970.9 ± 2
x1 = 0.2957	0.344 ± 0.021	0.405 ± 0.024	1133.96 ± 0.76	–	1985.2 ± 2.1	1971.5 ± 2.1
x1 = 0.3897	–	–	1138.61 ± 1.2	–	1975.3 ± 2.5	1957.2 ± 2.5
x1 = 0.5347	0.079 ± 0.005	0.108 ± 0.007	1140.95 ± 2.1	–	1955.9 ± 3.1	1941.6 ± 3.1
x1 = 0.6044	0.059 ± 0.004	0.089 ± 0.005	1141.68 ± 2.7	–	1952.1 ± 3.4	1937.4 ± 3.4
x1 = 0.6931	0.037 ± 0.002	0.046 ± 0.003	1141.39 ± 3.5	–	1942.5 ± 3.8	1927.3 ± 3.8
x1 = 0.7565	–	–	1141.84 ± 4.1	–	1943.3 ± 4	1923.3 ± 4
x1 = 0.798	0.018 ± 0.001	0.029 ± 0.002	–	–	–	–
x1 = 0.8375	–	–	1142.39 ± 5	–	1942.6 ± 4.4	1922.5 ± 4.4
x1 = 0.8996	0.01 ± 0.001	0.017 ± 0.001	1142.96 ± 5.8	–	1938.8 ± 4.7	1922.9 ± 4.7
x1 = 0.94	–	–	1143.25 ± 6.3	–	1945.2 ± 4.9	1921.7 ± 4.9
x1 = 0.9611	–	–	1143.37 ± 6.6	–	1944.8 ± 5	1919.6 ± 5
